3 compounds from patent US20200038423A1, “USE OF 6-O-(C8-C20 ALKYL ESTER) OF 1-O-(C1-C6 ALKYL)-ß-D-GLUCOSIDE AS AN AGENT FOR PROTECTING THE SKIN” (PIERRE FABRE DERMO-COSMETIQUE, priority 2016, published 2020) can be followed below.

What all share (format): cell-based
The test system of assay [1] is primary normal human keratinocytes. As to the kind of experiment: Oris Cell Migration Assay, keratinocyte migration. The note with it: for % Stim (% stimulation of keratinocyte migration): 24 h migration. As for the experimental part:
Oris™ Cell Migration Assays were used to estimate cell migration.
Primary normal human keratinocytes isolated from tissues extracted during cosmetic surgery were seeded on 96-well plates and cultured in KSFM supplemented with 25 μg/ml bovine pituitary extract (BPE, Invitrogen) and 0.2 ng/ml EGF (Invitrogen). After 24 h of incubation, the culture medium is replaced with KSM without supplement. After 24 h of incubation, the Oris™ stoppers as well as the test compounds or positive controls are removed. The latter are 5 ng/ml TGF-β, 30 ng/ml EGF, or KSM supplemented with BPE and EGF. Incubation continues for the next 24 h to allow migration. At the end of incubation, Calcein AM dye, which penetrates the cells, is added to the wells and is converted to fluorescence which is then quantified in a detection zone using a monochromatic microplate (Clariostar, BMG Labteck).
The compound tested is 1-O-n-butyl-β-D-glucoside 6-O-lauroyl, it is solubilized in DMSO at a concentration of 100 mM. The compound is tested at 2, 10 and 20 μM. The effect of DMSO at the tested concentrations has no effect on keratinocyte migration. The experiments are repeated on 2 donors with 8 wells for each condition.
The quantification of the fluorescence emitted in the detection zone is proportional to keratinocyte migration. Statistical analyses (Mann-Whitney test) are used to analyze the effect of the compound. After fluorescence quantification, the cells were rapidly fixed in 4% paraformaldehyde before eosin-hematoxylin staining and observed under a microscope.

Assay [2] deals with Normal human keratinocytes. The assay can be described thus: Keratinocyte differentiation judged from RT-qPCR of 6 target genes. The note with it: 20 μM, incubation for 48 h. As for the experimental part: (§1) Normal human keratinocytes were incubated for 48 h with 1-O-n-butyl-β-D-glucoside 6-O-lauroyl. Its effects were evaluated using the RT-qPCR technique with the analysis of 6 target genes, chosen for their importance in keratinocyte differentiation and hydration.
Background: Quantitative PCR measures a nucleic acid by following its amplification.

The next assay deals with DEGS2. The assay can be described thus: RT-qPCR, modulation of genes involved in keratinocyte differentiation and hydration: DEGS2. The note with it: CaCl2 1.5 mM; normal human keratinocytes, 48 h; lipid differentiation marker. As for the experimental part:
as §1

Another assay deals with FABP5. The assay can be described thus: RT-qPCR, modulation of genes involved in keratinocyte differentiation and hydration: FABP5. The conditions noted are these: CaCl2 1.5 mM; normal human keratinocytes, 48 h; lipid differentiation marker. As for the experimental part: as §1
The next assay relates to KLK7. The assay can be described thus: RT-qPCR, modulation of genes involved in keratinocyte differentiation and hydration: KLK7. The conditions noted are these: CaCl2 1.5 mM; normal human keratinocytes, 48 h; protein differentiation marker. On the procedure: as §1
The test system of another assay is CASP14. The assay can be described thus: RT-qPCR, modulation of genes involved in keratinocyte differentiation and hydration: CASP14. The note with it: CaCl2 1.5 mM; normal human keratinocytes, 48 h; protein differentiation marker. On the procedure: as §1
A further assay has as its system SULT2B1. As to the kind of experiment: RT-qPCR, modulation of genes involved in keratinocyte differentiation and hydration: SULT2B1. The conditions noted are these: CaCl2 1.5 mM; normal human keratinocytes, 48 h; lipid differentiation marker. On the procedure:
as §1

In a further assay the test system is TGM1. As to the kind of experiment: RT-qPCR, modulation of genes involved in keratinocyte differentiation and hydration: TGM1. The conditions noted are these: CaCl2 1.5 mM; normal human keratinocytes, 48 h; protein differentiation marker. On the procedure:
as §1

Take `CCCCCCCCCCCC(=O)OC[C@H]1O[C@@H](OCCCC)[C@H](O)[C@@H](O)[C@@H]1O` [β-LBG, 1-O-n-butyl-β-D-glucoside 6-O-lauroyl]: the keratinocyte migration entry in assay [1] (both donors tested, at either 10 μM or 20 μM) is “stimulates keratinocyte migration”. In addition, the “migration of normal human keratinocytes” value in assay [1] (concentrations of 10 to 20 μM) was “significantly stimulates”. The “% Stim (% stimulation of keratinocyte migration)” value in assay [1] (donor 1, 2 μM) is reported as −30%; in assay [1] (donor 1, 10 μM), 41%; in assay [1] (donor 1, 20 μM), 104%; in assay [1] (donor 2, 2 μM), 46%; in assay [1] (donor 2, 10 μM) it was 63%; in assay [1] (donor 2, 20 μM) it was 21%. In addition, the keratinocyte differentiation result in assay [2] is recorded as “induces reproducible keratinocyte differentiation”.

As for “EGF: positive control of migration, 30 ng/ml EGF [reference compound]”, the “% Stim (% stimulation of keratinocyte migration)” value in assay [1] (donor 1, 30 ng/ml) is given as 35%; in assay [1] (donor 2, 30 ng/ml), 87%.

As for `[Ca+2].[Cl-].[Cl-]` [CaCl2], the “DEG S2 expression, Mean (% Control)” value with DEGS2 turned out to be 217 % Control. The “FABP5 expression, Mean (% Control)” value in the assay on FABP5 is on record as 501 % Control. Also, the “KLK7 expression, Mean (% Control)” value in the assay on KLK7 is listed as 994 % Control. The “CASP14 expression, Mean (% Control)” value in the assay with CASP14 is 127 % Control. Also, in the assay on SULT2B1, the “SULT2B1 expression, Mean (% Control)” value is recorded as 1169 % Control. Also, the “TGM1 expression, Mean (% Control)” value with TGM1 is recorded as 910 % Control.
